The supplement of paper PMC10307832

Experiments:
Test in all cases: relative viability (nuclei count vs DMSO), 5 days (fraction); higher = more cells survive
ChaGo-K-1 = system: ChaGo-K-1
Outline: (§1)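 Dosing by pin tool came one day after lung cancer cell lines were seeded in 1536-well plates, using either one drug or a fixed anchor-drug dose plus five library-drug doses (not always all listed) in √10 steps. After 5 days, nuclei were counted on 4× images. Relative viability is treated-well nuclei count divided by vehicle-well nuclei count, and values are medians of duplicate plates.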

EMC-BAC-2 = system: EMC-BAC-2
Outline: as §1

EPLC-272H = system: EPLC-272H
Outline: as §1

HCC-366 = system: HCC-366
Outline: as §1

HCC-44 = system: HCC-44
Outline: as §1

HCC-78 = system: HCC-78
Outline: as §1

HCC-827 = system: HCC-827
Outline: as §1

LCLC-103H = system: LCLC-103H
Outline: as §1

LK-2 = system: LK-2
Outline: as §1

LOU-NH91 = system: LOU-NH91
Outline: as §1

LU99A = system: LU99A
Outline: as §1

LXF-289 = system: LXF-289
Outline: as §1

NCI-H1563 = system: NCI-H1563
Outline: as §1

NCI-H1666 = system: NCI-H1666
Outline: as §1

NCI-H1975 = system: NCI-H1975
Outline: as §1

NCI-H2085 = system: NCI-H2085
Outline: as §1

NCI-H2126 = system: NCI-H2126
Outline: as §1

NCI-H23 = system: NCI-H23
Outline: as §1

NCI-H2405 = system: NCI-H2405
Outline: as §1

NCI-H3122 = system: NCI-H3122
Outline: as §1

RERF-LC-KJ = system: RERF-LC-KJ
Outline: as §1

SK-LU-1 = system: SK-LU-1
Outline: as §1

SW 1573 = system: SW 1573
Outline: as §1

Q: How did the relative viability (ChaGo-K-1; first compound 0.1265 µM) turn out when C[C@@H]1CN(CC(=O)Nc2ccc3c(c2)Cc2cccc(-c4cc(=O)cc(N5CCOCC5)o4)c2S3)C[C@H](C)O1 + CS(=O)(=O)N1CCN(Cc2cc3nc(-c4cccc5[nH]ncc45)nc(N4CCOCC4)c3s2)CC1 [Pictilisib] (partner 1 µM) was run?
A: 0.633

Q: And the relative viability (ChaGo-K-1; first compound 0.4 µM)?
A: 0.577

Q: And the relative viability (ChaGo-K-1; first compound 4 µM)?
A: 0.686

Q: What about the relative viability (EMC-BAC-2; first compound 0.04 µM) of the same compound?
A: 0.559

Q: And the relative viability (EMC-BAC-2; first compound 0.1265 µM)?
A: 0.528

Q: And the relative viability (EMC-BAC-2; first compound 0.4 µM)?
A: 0.429

Q: What about the relative viability (EMC-BAC-2; first compound 4 µM) of the same compound?
A: 0.514

Q: What about the relative viability (EPLC-272H; first compound 0.04 µM) of the same compound?
A: 0.272

Q: What about the relative viability (EPLC-272H; first compound 0.1265 µM) of the same compound?
A: 0.305

Q: What about the relative viability (EPLC-272H; first compound 0.4 µM) of the same compound?
A: 0.3

Q: What about the relative viability (EPLC-272H; first compound 4 µM) of the same compound?
A: 0.289

Q: What about the relative viability (HCC-366; first compound 0.04 µM) of the same compound?
A: 0.151

Q: What about the relative viability (HCC-366; first compound 0.1265 µM) of the same compound?
A: 0.142

Q: What about the relative viability (HCC-366; first compound 0.4 µM) of the same compound?
A: 0.138

Q: What about the relative viability (HCC-366; first compound 4 µM) of the same compound?
A: 0.112

Q: What about the relative viability (HCC-44; first compound 0.04 µM) of the same compound?
A: 0.616

Q: What about the relative viability (HCC-44; first compound 0.1265 µM) of the same compound?
A: 0.573

Q: And the relative viability (HCC-44; first compound 0.4 µM)?
A: 0.465

Q: And the relative viability (HCC-44; first compound 4 µM)?
A: 0.287

Q: What about the relative viability (HCC-78; first compound 0.04 µM) of the same compound?
A: 0.208

Q: And the relative viability (HCC-78; first compound 0.1265 µM)?
A: 0.2

Q: What about the relative viability (HCC-78; first compound 0.4 µM) of the same compound?
A: 0.168

Q: And the relative viability (HCC-78; first compound 4 µM)?
A: 0.265

Q: What about the relative viability (HCC-827; first compound 0.04 µM) of the same compound?
A: 0.987

Q: And the relative viability (HCC-827; first compound 0.1265 µM)?
A: 1.03

Q: What about the relative viability (HCC-827; first compound 0.4 µM) of the same compound?
A: 1.22

Q: What about the relative viability (HCC-827; first compound 4 µM) of the same compound?
A: 0.995

Q: And the relative viability (LCLC-103H; first compound 0.04 µM)?
A: 0.547

Q: And the relative viability (LCLC-103H; first compound 0.1265 µM)?
A: 0.557

Q: And the relative viability (LCLC-103H; first compound 0.4 µM)?
A: 0.582

Q: What about the relative viability (LCLC-103H; first compound 4 µM) of the same compound?
A: 0.668

Q: And the relative viability (LK-2; first compound 0.1265 µM)?
A: 0.634

Q: And the relative viability (LK-2; first compound 0.4 µM)?
A: 0.607

Q: What about the relative viability (LK-2; first compound 4 µM) of the same compound?
A: 0.667

Q: And the relative viability (LOU-NH91; first compound 0.04 µM)?
A: 0.554

Q: And the relative viability (LOU-NH91; first compound 0.1265 µM)?
A: 0.529

Q: And the relative viability (LOU-NH91; first compound 0.4 µM)?
A: 0.505

Q: And the relative viability (LOU-NH91; first compound 4 µM)?
A: 0.539

Q: What about the relative viability (LU99A; first compound 0.04 µM) of the same compound?
A: 0.313

Q: And the relative viability (LU99A; first compound 0.1265 µM)?
A: 0.382

Q: What about the relative viability (LU99A; first compound 0.4 µM) of the same compound?
A: 0.349

Q: What about the relative viability (LU99A; first compound 4 µM) of the same compound?
A: 0.378

Q: And the relative viability (LXF-289; first compound 0.04 µM)?
A: 0.852

Q: And the relative viability (LXF-289; first compound 0.1265 µM)?
A: 0.789

Q: And the relative viability (LXF-289; first compound 0.4 µM)?
A: 0.78

Q: What about the relative viability (LXF-289; first compound 4 µM) of the same compound?
A: 0.792

Q: What about the relative viability (NCI-H1563; first compound 0.04 µM) of the same compound?
A: 0.616

Q: And the relative viability (NCI-H1563; first compound 0.1265 µM)?
A: 0.661

Q: What about the relative viability (NCI-H1563; first compound 0.4 µM) of the same compound?
A: 0.702

Q: And the relative viability (NCI-H1563; first compound 4 µM)?
A: 0.711

Q: What about the relative viability (NCI-H1666; first compound 0.04 µM) of the same compound?
A: 0.444

Q: And the relative viability (NCI-H1666; first compound 0.1265 µM)?
A: 0.298

Q: What about the relative viability (NCI-H1666; first compound 0.4 µM) of the same compound?
A: 0.439

Q: And the relative viability (NCI-H1666; first compound 4 µM)?
A: 0.29

Q: And the relative viability (NCI-H1975; first compound 0.04 µM)?
A: 0.32

Q: What about the relative viability (NCI-H1975; first compound 0.1265 µM) of the same compound?
A: 0.263

Q: And the relative viability (NCI-H1975; first compound 0.4 µM)?
A: 0.279

Q: And the relative viability (NCI-H1975; first compound 4 µM)?
A: 0.298

Q: What about the relative viability (NCI-H2085; first compound 0.04 µM) of the same compound?
A: 0.476

Q: And the relative viability (NCI-H2085; first compound 0.1265 µM)?
A: 0.484

Q: What about the relative viability (NCI-H2085; first compound 0.4 µM) of the same compound?
A: 0.425

Q: And the relative viability (NCI-H2085; first compound 4 µM)?
A: 0.492

Q: What about the relative viability (NCI-H2126; first compound 0.04 µM) of the same compound?
A: 0.536

Q: What about the relative viability (NCI-H2126; first compound 0.1265 µM) of the same compound?
A: 0.49

Q: And the relative viability (NCI-H2126; first compound 0.4 µM)?
A: 0.459

Q: And the relative viability (NCI-H2126; first compound 4 µM)?
A: 0.487

Q: What about the relative viability (NCI-H23; first compound 0.04 µM) of the same compound?
A: 0.448

Q: And the relative viability (NCI-H23; first compound 0.1265 µM)?
A: 0.499

Q: And the relative viability (NCI-H23; first compound 0.4 µM)?
A: 0.483

Q: What about the relative viability (NCI-H23; first compound 4 µM) of the same compound?
A: 0.543

Q: What about the relative viability (NCI-H2405; first compound 0.04 µM) of the same compound?
A: 0.414

Q: And the relative viability (NCI-H2405; first compound 0.1265 µM)?
A: 0.461

Q: What about the relative viability (NCI-H2405; first compound 0.4 µM) of the same compound?
A: 0.358

Q: What about the relative viability (NCI-H2405; first compound 4 µM) of the same compound?
A: 0.406

Q: What about the relative viability (NCI-H3122; first compound 0.04 µM) of the same compound?
A: 0.656

Q: And the relative viability (NCI-H3122; first compound 0.1265 µM)?
A: 0.532

Q: What about the relative viability (NCI-H3122; first compound 0.4 µM) of the same compound?
A: 0.513

Q: And the relative viability (NCI-H3122; first compound 4 µM)?
A: 0.472

Q: And the relative viability (RERF-LC-KJ; first compound 0.04 µM)?
A: 0.591

Q: And the relative viability (RERF-LC-KJ; first compound 0.1265 µM)?
A: 0.531

Q: What about the relative viability (RERF-LC-KJ; first compound 0.4 µM) of the same compound?
A: 0.523

Q: And the relative viability (RERF-LC-KJ; first compound 4 µM)?
A: 0.487

Q: And the relative viability (SK-LU-1; first compound 0.04 µM)?
A: 0.657

Q: What about the relative viability (SK-LU-1; first compound 0.1265 µM) of the same compound?
A: 0.594

Q: What about the relative viability (SK-LU-1; first compound 0.4 µM) of the same compound?
A: 0.702

Q: What about the relative viability (SK-LU-1; first compound 4 µM) of the same compound?
A: 0.484

Q: What about the relative viability (SW 1573; first compound 0.04 µM) of the same compound?
A: 0.536

Q: What about the relative viability (SW 1573; first compound 0.1265 µM) of the same compound?
A: 0.531

Q: What about the relative viability (SW 1573; first compound 0.4 µM) of the same compound?
A: 0.489

Q: What about the relative viability (SW 1573; first compound 4 µM) of the same compound?
A: 0.486
